Holding throughout (format): functional
The subject of assay [1] is Staphylococcus aureus. As to the kind of experiment: Antimicrobial activity against Staphylococcus aureus ATCC 25923 after 24 hrs by disk diffusion method. As to conditions: ATCC 25923, 24 h. On the technique in general: A growth-free zone around the sample is the usual read-out of agar diffusion tests.
The subject of assay [2] is Staphylococcus aureus. As to the kind of experiment: Antimicrobial activity against Staphylococcus aureus isolate after 24 hrs by disk diffusion method.
Assay [3] deals with Bacillus subtilis. As to the kind of experiment: Antimicrobial activity against Bacillus subtilis ATCC 6633 after 24 hrs by disk diffusion method. As to conditions: ATCC 6633, 24 h.
Assay [4] deals with Bacillus subtilis. As to the kind of experiment: Antimicrobial activity against Bacillus subtilis isolate after 24 hrs by disk diffusion method.
The test system of assay [5] is Escherichia coli. As to the kind of experiment: Antimicrobial activity against Escherichia coli ATCC 25922 after 24 hrs by disk diffusion method. As to conditions: ATCC 25922, 24 h.
The test system of assay [6] is Escherichia coli. As to the kind of experiment: Antimicrobial activity against Escherichia coli isolate after 24 hrs by disk diffusion method.
In assay [7] the test system is Klebsiella pneumoniae. As to the kind of experiment: Antimicrobial activity against Klebsiella pneumoniae RSHM 574 after 24 hrs by disk diffusion method.
The subject of assay [8] is Klebsiella pneumoniae. As to the kind of experiment: Antimicrobial activity against Klebsiella pneumoniae after 24 hrs by disk diffusion method.
Assay [9] concerns Pseudomonas aeruginosa. As to the kind of experiment: Antimicrobial activity against Pseudomonas aeruginosa ATCC […] after 24 hrs by disk diffusion method. As to conditions: ATCC 25853, 24 h.
The test system of assay [10] is Candida albicans. As to the kind of experiment: Antimicrobial activity against Candida albicans ATCC 10231 after 24 to 48 hrs after 24 hrs by disk diffusion method.
Assay [11] deals with Candida albicans. As to the kind of experiment: Antimicrobial activity against Candida albicans isolate after 24 to 48 hrs after 24 hrs by disk diffusion method.

In brackets after ≈: the same amount, converted by molar mass.

Consider `CCS(=O)(=O)c1ccc2oc(CCc3ccccc3)nc2c1`, for which the MIC (usually the lowest concentration that inhibits growth of the organism) in assay [1] came to 125 µg/mL (≈ 396 µM); in assay [2] it was 125 µg/mL (≈ 396 µM); in assay [3] it was 62.5 µg/mL (≈ 198 µM); in assay [4], 31.2 µg/mL (≈ 99.1 µM); in [5] it was 62.5 µg/mL (≈ 198 µM); in [6] it was 125 µg/mL (≈ 396 µM). Also, the MIC in assay [7] turned out to be 31.2 µg/mL (≈ 99.1 µM); in [8] it was 125 µg/mL (≈ 396 µM); in assay [9], 62.5 µg/mL (≈ 198 µM); in assay [10] it was 62.5 µg/mL (≈ 198 µM); in [11], 62.5 µg/mL (≈ 198 µM).

Turning to `CCS(=O)(=O)c1ccc2oc(Cc3ccc(C)cc3)nc2c1`, the MIC in assay [1] was 125 µg/mL (≈ 396 µM); in [2], 125 µg/mL (≈ 396 µM); in [3], 31.2 µg/mL (≈ 99.1 µM); in assay [4], 31.2 µg/mL (≈ 99.1 µM); in assay [5], 62.5 µg/mL (≈ 198 µM); in assay [6], 125 µg/mL (≈ 396 µM). Moreover, the MIC in assay [7] was found to be 62.5 µg/mL (≈ 198 µM); in assay [8], 125 µg/mL (≈ 396 µM); in [9] it was 62.5 µg/mL (≈ 198 µM); in assay [10] it was 62.5 µg/mL (≈ 198 µM); in assay [11] it was 62.5 µg/mL (≈ 198 µM).

Regarding `CCc1ccc(-c2nc3cc(S(=O)(=O)CC)ccc3o2)cc1`, the MIC in assay [1] was 125 µg/mL (≈ 396 µM); in [2], 125 µg/mL (≈ 396 µM); in assay [3], 31.2 µg/mL (≈ 99.1 µM); in [4] it was 31.2 µg/mL (≈ 99.1 µM); in assay [5], 62.5 µg/mL (≈ 198 µM); in [6], 62.5 µg/mL (≈ 198 µM). The MIC in assay [7] stood at 62.5 µg/mL (≈ 198 µM); in assay [8], 125 µg/mL (≈ 396 µM); in [9], 62.5 µg/mL (≈ 198 µM); in [10], 125 µg/mL (≈ 396 µM); in assay [11], 15.6 µg/mL (≈ 49.5 µM).

As to `CCS(=O)(=O)c1ccc2oc(-c3cc(Br)ccc3Cl)nc2c1`, the MIC in [1] was determined as 125 µg/mL (≈ 312 µM); in assay [2] it was 125 µg/mL (≈ 312 µM); in assay [3] it was 62.5 µg/mL (≈ 156 µM); in [4], 31.2 µg/mL (≈ 78 µM); in [5], 62.5 µg/mL (≈ 156 µM); in [6], 125 µg/mL (≈ 312 µM). The MIC came out at 62.5 µg/mL (≈ 156 µM) in assay [7]; 125 µg/mL (≈ 312 µM) in assay [8]; 62.5 µg/mL (≈ 156 µM) in [9]; 62.5 µg/mL (≈ 156 µM) in assay [10]; 62.5 µg/mL (≈ 156 µM) in [11].

Regarding `CCS(=O)(=O)c1ccc2oc(-c3ccccc3)nc2c1`, the MIC stood at 125 µg/mL (≈ 435 µM) in assay [1]; 125 µg/mL (≈ 435 µM) in [2]; 62.5 µg/mL (≈ 218 µM) in assay [3]; 31.2 µg/mL (≈ 109 µM) in assay [4]; 62.5 µg/mL (≈ 218 µM) in assay [5]; 62.5 µg/mL (≈ 218 µM) in assay [6]. In addition, the MIC stood at 125 µg/mL (≈ 435 µM) in [7]; 125 µg/mL (≈ 435 µM) in assay [8]; 62.5 µg/mL (≈ 218 µM) in [9]; 125 µg/mL (≈ 435 µM) in [10]; 31.2 µg/mL (≈ 109 µM) in [11].

On to `CCS(=O)(=O)c1ccc2oc(Cc3ccccc3Cl)nc2c1`, for which the MIC in [1] turned out to be 125 µg/mL (≈ 372 µM); in assay [2], 125 µg/mL (≈ 372 µM); in [3] it was 62.5 µg/mL (≈ 186 µM); in assay [4] it was 31.2 µg/mL (≈ 93.1 µM); in assay [5] it was 62.5 µg/mL (≈ 186 µM); in assay [6], 125 µg/mL (≈ 372 µM). Besides, the MIC in assay [7] stood at 31.2 µg/mL (≈ 93.1 µM); in [8], 125 µg/mL (≈ 372 µM); in [9] it was 62.5 µg/mL (≈ 186 µM); in [10], 62.5 µg/mL (≈ 186 µM); in [11], 62.5 µg/mL (≈ 186 µM).

For `CC1(C)S[C@@H]2[C@H](NC(=O)[C@H](N)c3ccccc3)C(=O)N2[C@H]1C(=O)O.O.O.O` [AMPICILLIN TRIHYDRATE], the MIC in assay [1] is 0.03 µg/mL; in assay [2] it was 2 µg/mL; in assay [3] it was 0.25 µg/mL; in assay [4], 8 µg/mL; in assay [5], 8 µg/mL; in [6] it was 256 µg/mL. The MIC in assay [7] was determined as 2 µg/mL; in assay [8], 256 µg/mL; in [9], 4100 µg/mL.

As for `CCS(=O)(=O)c1ccc2oc(-c3ccccc3Br)nc2c1`, the MIC in assay [1] was 125 µg/mL (≈ 341 µM); in [2], 125 µg/mL (≈ 341 µM); in [3] it was 15.6 µg/mL (≈ 42.7 µM); in assay [4], 31.2 µg/mL (≈ 85.3 µM); in assay [5] it was 62.5 µg/mL (≈ 171 µM); in assay [6], 250 µg/mL (≈ 683 µM). For the same molecule, the MIC was found to be 31.2 µg/mL (≈ 85.3 µM) in assay [7]; 125 µg/mL (≈ 341 µM) in [8]; 62.5 µg/mL (≈ 171 µM) in [9]; 62.5 µg/mL (≈ 171 µM) in [10]; 62.5 µg/mL (≈ 171 µM) in assay [11].

`CCS(=O)(=O)c1ccc2oc(-c3ccc(C(C)(C)C)cc3)nc2c1`: the MIC in assay [1] came out at 125 µg/mL (≈ 364 µM); in assay [2] it was 125 µg/mL (≈ 364 µM); in assay [3] it was 7.81 µg/mL (≈ 22.7 µM); in [4], 15.6 µg/mL (≈ 45.5 µM); in assay [5] it was 62.5 µg/mL (≈ 182 µM); in assay [6] it was 62.5 µg/mL (≈ 182 µM). Also, the MIC in assay [7] was 62.5 µg/mL (≈ 182 µM); in [8] it was 250 µg/mL (≈ 728 µM); in assay [9], 62.5 µg/mL (≈ 182 µM); in assay [10], 125 µg/mL (≈ 364 µM); in assay [11] it was 31.2 µg/mL (≈ 91 µM).

As to `CC1COc2c(N3CCN(C)CC3)c(F)cc3c(=O)c(C(=O)O)cn1c23` (stereo not drawn) [OFLOXACIN], the MIC in assay [1] amounted to 0.25 µg/mL (≈ 0.692 µM); in assay [2], 2 µg/mL (≈ 5.53 µM); in assay [3], 0.125 µg/mL (≈ 0.346 µM); in assay [4], 32 µg/mL (≈ 88.6 µM); in [5], 0.125 µg/mL (≈ 0.346 µM); in [6] it was 32 µg/mL (≈ 88.6 µM). Moreover, the figures for the MIC in assay [7], in assay [8] and in [9] were 0.25 µg/mL (≈ 0.692 µM), 64 µg/mL (≈ 177 µM) and 8 µg/mL (≈ 22.1 µM), respectively.

Regarding `C[C@@H]1[C@H](O)[C@@H](C)/C=C/C=C/C=C/C=C/C=C/C=C/C=C/[C@H](O[C@@H]2O[C@H](C)[C@@H](O)[C@H](N)[C@@H]2O)C[C@@H]2O[C@](O)(C[C@@H](O)C[C@@H](O)[C@H](O)CC[C@@H](O)C[C@@H](O)CC(=O)O[C@H]1C)C[C@H](O)[C@H]2C(=O)O` [AMPHOTERICIN B], the MIC in [10] and in assay [11] was 1 µg/mL (≈ 1.08 µM) in each case.

(Values after ChEMBL document CHEMBL1140961, “Synthesis and biological activity of some new benzoxazoles” (2008).)
